Results on 119 sequences are retold here after the OligoGym collection.

These antisense oligonucleotides have a phosphorothioate backbone; sugars and methylation of C are not fully specified.
Also: test concentration or dose not given here.

The first data set addresses EGR1. The note with it: ASO.
In turn, TATCCAAAATCCATGCAA showed a remaining target (mRNA or protein) (fraction of control) not below 1.

GGTAGGAAGAGAGAGAGG yielded a remaining target (mRNA or protein) (fraction of control) not below 1. For ATGTCCGAAAGCCCTGTG, the remaining target (mRNA or protein) (fraction of control) is not below 1. For TCTCCTCCTCCTGTCCTT, the remaining target (mRNA or protein) (fraction of control) is not below 1. TGCGGATGTGGCGGGTGA registered a remaining target (mRNA or protein) (fraction of control) not below 1.

As to CTCGCCCGTGTCCGCCTG, the remaining target (mRNA or protein) (fraction of control) was not below 1. For the sequence GTTTGATGAGCTGGGACT, the remaining target (mRNA or protein) (fraction of control) was not below 1. TGCTGACCTGGGCCGGGA displayed a remaining target (mRNA or protein) (fraction of control) not below 1. Still for that read-out and setting: next, ATGCCTCTTGCGTTCATC: not below 1; GGAAGGGCTTCTGGTCTG: not below 1; CTCACTAGGCCACTGACC: not below 1. TAATACAATAGAATATGC had a remaining target (mRNA or protein) (fraction of control) not below 1. Sequence CATGGCACAGACACTGTA came in with a remaining target (mRNA or protein) (fraction of control) not below 1. In the case of ACTCGATTTTCTAGCATT, the remaining target (mRNA or protein) (fraction of control) was not below 1. Same read-out and setting: next, AACGGAACAACACTCTGA: not below 1; TCTGCTTTCTTGTCCTTC: not below 1; AGAGGATCACCATTGGTT: not below 1. In the case of TGCTGTCGTTGGATGGCA, the remaining target (mRNA or protein) (fraction of control) is not below 1. Still for that read-out and setting: next, CCCCGCCGCCTCCACCGC: 0.38; CCTGCGGCGGCGGAAGCT: not below 1. GGGCCTGGCCGGGTTACA had a remaining target (mRNA or protein) (fraction of control) of 0.4. On to CAAAAGGCACCAAGACGT, for which the remaining target (mRNA or protein) (fraction of control) was not below 1.

GGTCCTGGGAGCCCGACT returned a remaining target (mRNA or protein) (fraction of control) not below 1. In the case of CGCAGGCGAAGGGCTTTT, the remaining target (mRNA or protein) (fraction of control) was not below 1. On the same count and under the same terms, the same measure for GATGGCGGCGGCGGCTCC: not below 1.

For CAGCAGCATCATCTCCTC, the remaining target (mRNA or protein) (fraction of control) was not below 1. AGATGGTGCTGAGGACGA showed a remaining target (mRNA or protein) (fraction of control) not below 1. GAAAATGTCAGTGTTCGG registered a remaining target (mRNA or protein) (fraction of control) not below 1. Same read-out and setting: next, GGTGAAGAACTTGGACAT: not below 1; GATGTCAGGAAAAGACTC: not below 1; CCACTGGGCAAGCGTAAG: not below 1. As for GTGGGCAGAAAGGATTGT, the remaining target (mRNA or protein) (fraction of control) stood at 0.8. On the same count and under the same terms, next, TCGCTGCGGCTGAAGTTG: not below 1; CGGCAGGGTAGGCAGGAG: 0.56; GGGCGAGTGAGGAAAGGA: 0.63. Sequence TCGAGTGGTTTGGCTGGG gave a remaining target (mRNA or protein) (fraction of control) not below 1. Take GGAATTGGCTCTGAGAAC: the remaining target (mRNA or protein) (fraction of control) is not below 1.

As for GAGAGGAGAAGGAGGTGG, the remaining target (mRNA or protein) (fraction of control) was not below 1. Turning to TGGGTGCAGGCTCCAGGG, the remaining target (mRNA or protein) (fraction of control) was not below 1. As for TCTTTCCCCTTTCCCTTT, the remaining target (mRNA or protein) (fraction of control) was determined as 0.93.

In the next data set the target is REL. The settings on record: ASO.
As for TCCCAAAGTGCTAGGATT, the remaining target (mRNA or protein) (fraction of control) was determined as 0.7. The same measure, in the same setting: next, GAAGTCTTGGATTATCAG: not below 1; TCTTTCTGAACTTTGTCA: 0.98. Still for that read-out and setting: next, CTTCCCGCAGGCAGCTCC: 0.56; CACAGTCTCACCACATTG: 0.39. Same read-out and setting: the same measure for GTCTGCGTTCTTGTCCAA: not below 1; for CTTTTCCATAATAGTTCA: 0.85; for GTCTCAAGTCTCTTGGGT: 0.41. For TTACTGTTACGGGTTCTG, the remaining target (mRNA or protein) (fraction of control) amounted to 0.64.

The sequence GTATTGCCTGAGCGTGGG displayed a remaining target (mRNA or protein) (fraction of control) of 0.57. Turning to ACTAATGTAATTCTCACT, the remaining target (mRNA or protein) (fraction of control) was not below 1. Same read-out and setting: next, ATGCCTTTTGCTTCCCAA: 0.14; TCATCGGCATTGTTGTAA: 0.54. With ATTTGTATCTAAAACGCA, the remaining target (mRNA or protein) (fraction of control) was not below 1. On the same count and under the same terms, next, TTTGCTTTATTGCCGTAA: not below 1; CACTAACTTCCTGGTCAG: 0.48. Same read-out and setting: the same measure for ATACGCACCGGAGGCCAT: not below 1; for ACTGACTATCTTGAACAA: not below 1. In turn, TGATCCACCCGCCTTGGC had a remaining target (mRNA or protein) (fraction of control) not below 1.

As for ATGCTGCCTGCTGATCGC, the remaining target (mRNA or protein) (fraction of control) was 0.41. CTCCTCCTTCTTCCCGCC registered a remaining target (mRNA or protein) (fraction of control) of 0.78. On to TCATTTATCATGCTGTTA, for which the remaining target (mRNA or protein) (fraction of control) is not below 1. On the same count and under the same terms, next, CCATATAAATCTGCTGAT: not below 1; AATGGATTGATTCCTGCC: not below 1; TCATATTCACAGAACAAT: not below 1. On the same count and under the same terms, the same measure for GAATGGTGGGATACCTTG: 0.43. Still for that read-out and setting: the same measure for AGTCAGGAGGCCGAGGGA: not below 1.

AATCCACTTGAGATGGGC gave a remaining target (mRNA or protein) (fraction of control) of 0.74.

The next data set concerns the target SMAD1. The settings on record: ASO.
GTCCAGAAGAGTAGAAAT gave a remaining target (mRNA or protein) (fraction of control) of 0.44.

The sequence ACAGTAGTAGGATGAAAT had a remaining target (mRNA or protein) (fraction of control) of 0.41. CCTCAGCTGCCAATACCC displayed a remaining target (mRNA or protein) (fraction of control) of 0.47.

The sequence CAGATGAAATAGGATTAT gave a remaining target (mRNA or protein) (fraction of control) of 0.55. On the same count and under the same terms, the same measure for TTTGTCCTAAGTTACGGA: 0.64; for TCCATGGTTCACAGACTG: 0.2; for TGAAACCATCCACCAACA: 0.3. The same measure, in the same setting: next, CCCACACGATTGTTGAGC: 0.35; TGTTTGTGTCCATCGGCT: 0.47; CCAGTCAGCACCGGGTTG: 0.8.

Take TAACATTGGAGAGCAGCC: the remaining target (mRNA or protein) (fraction of control) was 0.29.

In another data set the target is PLA2G4A. The settings on record: ASO.
In turn, GTGAACCAGAAACGCCCA displayed a remaining target (mRNA or protein) (fraction of control) not below 1. The sequence AAAGAGGTAAAGGGCATT registered a remaining target (mRNA or protein) (fraction of control) not below 1. In turn, ATCAAGGGATACGGCAGG came in with a remaining target (mRNA or protein) (fraction of control) of 0.51. On the same count and under the same terms, the same measure for GGTTGGGCAATCTTTCTC: not below 1. Same read-out and setting: the same measure for CTCCTTCAGCCCTTCCCG: not below 1; for AAGTCGGGAGCCATAAAA: 0.87. Still for that read-out and setting: the same measure for CCAAATAAGTCGGGAGCC: 0.09; for CAGAAACGCCCAAAACTC: 0.43; for ACCAGAAACGCCCAAAAC: 0.21. Sequence GAACCAGAAACGCCCAAA registered a remaining target (mRNA or protein) (fraction of control) not below 1. The same measure, in the same setting: next, GCCCAAAACTCTGTTGAA: 0; CATTTTAGCCCACTTTTC: not below 1. For CACTCCTTCAGCCCTTCC, the remaining target (mRNA or protein) (fraction of control) was not below 1. The sequence ATAAGTCGGGAGCCATAA displayed a remaining target (mRNA or protein) (fraction of control) of 0.98.

As for AAATAAGTCGGGAGCCAT, the remaining target (mRNA or protein) (fraction of control) is not below 1. AAACGCCCAAAACTCTGT had a remaining target (mRNA or protein) (fraction of control) not below 1. AGTGGATGATGGTTGGGC had a remaining target (mRNA or protein) (fraction of control) not below 1. On to GAAAAGAGGTAAAGGGCA, for which the remaining target (mRNA or protein) (fraction of control) was not below 1. With TGAGCCCACTGTCCACTA, the remaining target (mRNA or protein) (fraction of control) amounted to 0.26. Take AGCCCACTGTCCACTACA: the remaining target (mRNA or protein) (fraction of control) was found to be 0.2. CTTGTTCATTTTAGCCCA displayed a remaining target (mRNA or protein) (fraction of control) not below 1. Still for that read-out and setting: next, AAATCGTAGGTCTGGGCA: not below 1.

For the sequence GTTCATTTTAGCCCACTT, the remaining target (mRNA or protein) (fraction of control) is not below 1.

Sequence GATGGTTGGGCAATCTTT came in with a remaining target (mRNA or protein) (fraction of control) not below 1. On the same count and under the same terms, the same measure for AAGGGATACGGCAGGTTA: not below 1. Still for that read-out and setting: next, ATGTGAGCCCACTGTCCA: not below 1; CCCCACCTGAACCCAATA: not below 1; CACTGCCCCAGACACCCA: not below 1. As for TGAGATTCAAGCCCAGCA, the remaining target (mRNA or protein) (fraction of control) is 0.41.

Consider TCGGGAGCCATAAAAGTA, for which the remaining target (mRNA or protein) (fraction of control) is not below 1. With TTGTGAACCAGAAACGCC, the remaining target (mRNA or protein) (fraction of control) came to 0.08. Still for that read-out and setting: the same measure for AGGCCATTATCATACGAT: not below 1. The same measure, in the same setting: the same measure for AGAGGTAAAGGGCATTGT: not below 1; for TTTAGCCCACTTTTCTGC: 0.07. Still for that read-out and setting: the same measure for CCCCTTTGTCACTTTGGT: 0.33; for ATAGCACTCCTTCAGCCC: not below 1; for AGCACTCCTTCAGCCCTT: 0.29. Consider TAAATGTGAGCCCACTGT, for which the remaining target (mRNA or protein) (fraction of control) was not below 1. Still for that read-out and setting: next, GATGATGGTTGGGCAATC: not below 1; TGCCCCAGACACCCATTA: 0.88.
